Test results: patent US11208419B2, “Phenylbenzofuran compound, preparation method therefor, composition containing the same and medical application thereof” (Guangxi Botanical Garden of Medicinal Plants, priority 2018, dated 2021)
Converted amounts (≈) assume the structure as drawn. Each block holds one molecule with its values, some of them ahead of it.

What was measured:
Format in all cases: cell-based
[1] = tested on: nasopharyngeal carcinoma cell CNE-1; assay: MTT anti-tumor experiment in vitro, inhibition of nasopharyngeal carcinoma cell CNE-1
Description: (§1) Experiment 1, anti-tumor experiment of MTT in vitro
Inhibition experiment of nasopharyngeal carcinoma cell CNE-1
(§2) F1, 0.25% trypsin was added to nasopharyngeal carcinoma cell CNE-1 in the logarithmic growth phase for cell dissociation until adherent cells were failed off. Cell suspension containing 2×10^4 nasopharyngeal carcinoma cells CNE-1 per mL was prepared.
(§3) F2, a 96-well plate was taken, one row of the 96-well plate was set as a blank group, 9 rows were set as the experimental group 1, one row was set as the experimental group 2, and one row was set as the negative control group, wherein 6 wells in the middle of each row were used for the experiment and was added of 100 μL of RPMI-1640 medium, wherein the medium of negative control group contained 1% DMSO.
(§4) F3, 100 μL of cell suspension was added to each well of the blank group, the experimental group 1, the experimental group 2, and the negative control group. Then, the 96-well plate was placed in an incubator at 37 degree Celsius, 5% CO2, and 95% humidity, and cultured in the incubator for 12 hours. 100 μL phenylbenzofuran compound (phenylbenzofuran compound of embodiment 3) with a concentration was added to wells of each row of 9 rows in the experimental group 1, ie, 10 μg/mL, 20 μg/mL, 30 μg/mL, 40 μg/mL, 50 μg/mL, 60 μg/mL, 70 μg/mL, 80 μg/mL, and 90 μg/mL, wherein the concentration of phenylbenzofuran compound of wells in the same row was equal. As a parallel experiment, cisplatin (80 μg/mL, 100 μL) was added to wells of a row in the experimental group 2. Then, the 96-well plate was placed in an incubator at 37 degree Celsius, 5% CO2, and 95% humidity, and cultured in the incubator for 48 hours. MTT (5 mg/mL, 20 μL) was added to each well. Then, the 96-well plate was placed in an incubator at 37 degree Celsius, 5% CO2, and 95% humidity, and cultured in the incubator for 4 hours. The supernatant as removed by a pipette tip, 150 μL of DMSO was added, and the mixture was shaken for 10 minutes in a micro shaker to cause complete dissolution of crystal. The OD value of each well was measured at a wavelength of 570 nm by a microplate reader, and the IC50 value was calculated. That is, the concentration when the inhibition rate of the cells reached 50% was the IC50 value.
Proliferation rate of CNE-1 cell=(average of experimental group-average of blank control group)/(average of negative control group-average of blank control group)×100%.
Inhibition rate of CNE-1 cell=[…] of CNE-1 cell.

[2] = tested on: nasopharyngeal carcinoma cell CNE-2; assay: MTT anti-tumor experiment in vitro, inhibition of nasopharyngeal carcinoma cell CNE-2
Description: as §1, §2, §3, §4
Inhibition experiment of nasopharyngeal carcinoma cell CNE-2
The experimental procedure of the inhibition experiment of nasopharyngeal carcinoma cell CNE-2 was the same as that of the inhibition experiment of nasopharyngeal carcinoma cell CNE-1, except that the nasopharyngeal carcinoma cell CNE-1 was replaced with the nasopharyngeal carcinoma cell CNE-2.

[3] = tested on: nasopharyngeal carcinoma cell CNE-2; assay: as above; settings: Homo sapiens, 100 μg/mL, 48 hours, read-out: Inhibition rate of nasopharyngeal carcinoma cells (%) CNE-2
[4] = tested on: nasopharyngeal carcinoma cell CNE-1; assay: MTT anti-tumor experiment in vitro, inhibition of nasopharyngeal carcinoma cell CNE-1; settings: 100 μg/mL, 48 hours, read-out: Inhibition rate of nasopharyngeal carcinoma cells (%) CNE-1

SMILES: N.N.[Cl][Pt][Cl] [Cisplatin, cisplatin, reference compound]
- Inhibition rate of nasopharyngeal carcinoma cells (%) CNE-1 ([1]; 80 μg/mL, 48 hours, MTT): 94.21 ± 0.18%
- Inhibition rate of nasopharyngeal carcinoma cells (%) CNE-2 ([2]; 80 μg/mL, 48 hours, MTT): 97.37 ± 0.49%

- IC50 ([1]; CNE-1, 48 hours, read-out: concentration at which the inhibition rate reaches half inhibition growth effect): 20 µg/mL (≈ 74 µM)
- IC50 ([2]; Homo sapiens, CNE-2, 48 hours, read-out: concentration at which the inhibition rate reaches half inhibition growth effect): 15 µg/mL (≈ 55.5 µM)
SMILES: Oc1ccc(-c2cc3cc4c(cc3o2)OCO4)c(O)c1 [Phenylbenzofuran compound]
- inhibition at 10 µg/mL ([1]; 10 μg/mL, 48 hours, MTT, read-out: Inhibition rate of nasopharyngeal carcinoma cells (%) CNE-1): 25 ± 0.07%
- inhibition at 20 µg/mL ([1]; 20 μg/mL, 48 hours, MTT, read-out: Inhibition rate of nasopharyngeal carcinoma cells (%) CNE-1): 37.57 ± 0.03%
- inhibition at 30 µg/mL ([1]; 30 μg/mL, 48 hours, MTT, read-out: Inhibition rate of nasopharyngeal carcinoma cells (%) CNE-1): 45.52 ± 0.07%
- inhibition at 40 µg/mL ([1]; 40 μg/mL, 48 hours, MTT, read-out: Inhibition rate of nasopharyngeal carcinoma cells (%) CNE-1): 60.37 ± 0.06%
- inhibition at 50 µg/mL ([1]; 50 μg/mL, 48 hours, MTT, read-out: Inhibition rate of nasopharyngeal carcinoma cells (%) CNE-1): 68.5 ± 0.09%
- inhibition at 60 µg/mL ([1]; 60 μg/mL, 48 hours, MTT, read-out: Inhibition rate of nasopharyngeal carcinoma cells (%) CNE-1): 75.01 ± 0.13%
- inhibition at 70 µg/mL ([1]; 70 μg/mL, 48 hours, MTT, read-out: Inhibition rate of nasopharyngeal carcinoma cells (%) CNE-1): 85.83 ± 0.06%
- inhibition at 80 µg/mL ([1]; 80 μg/mL, 48 hours, MTT, read-out: Inhibition rate of nasopharyngeal carcinoma cells (%) CNE-1): 97.02 ± 0.11%
- inhibition at 90 µg/mL ([1]; 90 μg/mL, 48 hours, MTT, read-out: Inhibition rate of nasopharyngeal carcinoma cells (%) CNE-1): 97.81 ± 0.06%
- inhibition at 10 µg/mL ([2]; Homo sapiens, CNE-2, 10 μg/mL, 48 hours, MTT, read-out: Inhibition rate of nasopharyngeal carcinoma cells (%) CNE-2): 28.4 ± 0.36%
- inhibition at 20 µg/mL ([2]; Homo sapiens, CNE-2, 20 μg/mL, 48 hours, MTT, read-out: Inhibition rate of nasopharyngeal carcinoma cells (%) CNE-2): 43.61 ± 0.29%
- inhibition at 30 µg/mL ([2]; Homo sapiens, CNE-2, 30 μg/mL, 48 hours, MTT, read-out: Inhibition rate of nasopharyngeal carcinoma cells (%) CNE-2): 48.5 ± 0.6%
- inhibition at 40 µg/mL ([2]; Homo sapiens, CNE-2, 40 μg/mL, 48 hours, MTT, read-out: Inhibition rate of nasopharyngeal carcinoma cells (%) CNE-2): 75.18 ± 0.09%
- inhibition at 50 µg/mL ([2]; Homo sapiens, CNE-2, 50 μg/mL, 48 hours, MTT, read-out: Inhibition rate of nasopharyngeal carcinoma cells (%) CNE-2): 84.42 ± 0.44%
- inhibition at 60 µg/mL ([2]; Homo sapiens, CNE-2, 60 μg/mL, 48 hours, MTT, read-out: Inhibition rate of nasopharyngeal carcinoma cells (%) CNE-2): 95.13 ± 0.22%
- inhibition at 70 µg/mL ([2]; Homo sapiens, CNE-2, 70 μg/mL, 48 hours, MTT, read-out: Inhibition rate of nasopharyngeal carcinoma cells (%) CNE-2): 97.27 ± 0.6%
- inhibition at 80 µg/mL ([2]; Homo sapiens, CNE-2, 80 μg/mL, 48 hours, MTT, read-out: Inhibition rate of nasopharyngeal carcinoma cells (%) CNE-2): 98.78 ± 0.09%
- inhibition at 90 µg/mL ([2]; Homo sapiens, CNE-2, 90 μg/mL, 48 hours, MTT, read-out: Inhibition rate of nasopharyngeal carcinoma cells (%) CNE-2): 98.82 ± 0.44%
- inhibition at 100 µg/mL [3]: 98.64 ± 0.22%
- inhibition at 100 µg/mL [4]: 97.41 ± 0.02%
